According to patent US20090327175A1, “PHARMACOKINETIC MODELING OF MYCOPHENOLIC ACID” (priority 2006, published 2009):
Read-outs that look alike come from different tables or passages of the source.

Key:
[1] = 12 h plasma concentration/time profiles from six clinical studies of transplant patients receiving enteric coated mycophenolate salt (Myfortic); format: in vivo, human; conditions: for AUC(0-t): human, plasma, oral, enteric coated mycophenolate salt (Myfortic), read-out: MPA AUC0-12, mean and SD, measured
Description: 334, 12 h plasma concentration/time profiles (217 for de novo and 117 for stable patients) are available from six clinical studies of transplant patients receiving enteric coated composition containing mycophenolate salt (Myfortic®) as part of their immunosuppressive drug regimen. Using 20 randomly selected profiles, population PK models (two-compartment for stable patients and a one-compartment for de novo patients) are developed using a Bayesian approach (i.e. approach to statistics in which estimates are based on a synthesis of a prior distribution and current sample data) to estimate the model parameters. The remaining profiles are used to test and validate the models.

[2] = immediately post-transplantation; cited from earlier work

In the case of `COc1c(C)c2c(c(O)c1C/C=C(\C)CCC(=O)O)C(=O)OC2` [MPA, mycophenolic acid], the “share of de novo patients below lower end of target range for MPA AUC0-12 (30 mg/L·h)” value ([1]; fixed dose of 720 mg bid, during the two weeks after transplantation) is reported as 50%, the AUC(0-t) ([1]; 720 mg bid, de novo patients transplanted within the previous two weeks) is reported as 32200 ± 17500 ng·h/mL and the AUC(0-t) ([1]; stable patients) is reported as 65100 ± 26000 ng·h/mL. For the same compound, the “optimal target MPA AUC0-12 suggested by previous controlled studies” value [2] was ~45000 ng·h/mL.
